This note sets out measurements from patent US20250354182A1, “BIOSYNTHESIS OF BIFUNCTIONAL TERPENOIDS” (The Regents of the University of California, priority 2024, published 2025).

Entries after “also recorded” stand apart in the source; their conditions may differ.

Assay [1] concerns E. coli NCM372. Put plainly: E. coli growth with 12a supplementation. It is filed as cell-based, Escherichia coli. As for the experimental part:
(§1) FIG. 7: Bioactivity of farnesoic diacid. FIG. 7(a): E. coli NCM372 was grown to an optical density (OD600) of around 0.2, where either 12a in DMSO was added to final concentration of 10 μM (+) or DMSO was added (−). Three biological replicates are shown, and statistical significance using an unpaired t test is shown. FIG. 7(b): Immortalized baby mouse kidney (iBMK) cells were grown, either non-activated (D3) or Ras-activated (Ras). 12a in DMSO was added to final concentration of 10 μM (+) or DMSO was added (−). Three biological replicates are shown, and statistical significance using an unpaired t test is shown.
We supplemented cultures with 12a to a final concentration of 10 μM and monitored growth in both Escherichia coli (FIG. 6a) and mammalian cell lines (FIG. 6b). […] These findings provide evidence that farnesoic diacid and potentially our other newly discovered bifunctional terpenoids may have distinct bioactivities across diverse biological contexts, with applications in more efficient cultivation of microbes and selective activity against certain mammalian cells. As the longer bifunctional terpenoids (C25-C30) resemble oxylipin and polyunsaturated fatty acids, which are implicated in immunity and obesity, we reason that bioactivity may be related to lipid metabolism in mammalian systems that will be relevant in pharmaceutical contexts. Furthermore, the shorter bifunctional terpenoids (C15-C20) and their preceding biosynthetic intermediates resemble inhibitors of insect development, such as juvenile hormones, these molecules may serve as scaffolds for insecticide drug activity to target insect development. Further research on the novel molecules will illuminate more bioactivities on humans, human cells, research animals, plants, insects, and microorganisms.

Assay [2] deals with Immortalized baby mouse kidney (iBMK) cells, Ras-activated (Ras). Kind of assay: iBMK cell growth with 12a, Ras-activated (Ras). It is filed as cell-based. The procedure:
as §1
(§2) We supplemented cultures with 12a to a final concentration of 10 μM and monitored growth in both Escherichia coli (FIG. 6a) and mammalian cell lines (FIG. 6b). […] These findings provide evidence that farnesoic diacid and potentially our other newly discovered bifunctional terpenoids may have distinct bioactivities across diverse biological contexts, with applications in more efficient cultivation of microbes and selective activity against certain mammalian cells. As the longer bifunctional terpenoids (C25-C30) resemble oxylipin and polyunsaturated fatty acids, which are implicated in immunity and obesity, we reason that bioactivity may be related to lipid metabolism in mammalian systems that will be relevant in pharmaceutical contexts. […]

The test system of assay [3] is Immortalized baby mouse kidney (iBMK) cells, non-activated (D3). Kind of assay: iBMK cell growth with 12a, non-activated (D3). In kind it is cell-based. As for the experimental part: as §1, §2
Where [4] appears, read: 12a 10 μM vs DMSO, 3 biological replicates.

Turning to `C/C(=C\CC/C(C)=C/C(=O)O)CC/C=C(\C)C(=O)O` [12a, farnesoic diacid], in assay [1] (12a 10 μM in DMSO vs DMSO, added at OD600 around 0.2, 3 biological replicates), the “microbial cells grew faster with treatment” value is around 10%. In assay [1] (12a 10 μM vs DMSO), the “final optical density” value is “higher final optical density”. In addition, the “microbial growth rate / cell growth” value in assay [1] (12a 10 μM vs DMSO) is “increases microbial cell growth; also recorded: increased microbial growth rate”. Also, in assay [1] (farnesoic diacid treatment, FIG. 7), the “total biomass content” value is recorded as “increased”. Besides, the “proliferation / cell growth” value in assay [2] (12a 10 μM) and in assay [3] (12a 10 μM) was “decreases mammalian (cancer-like) cell growth; also recorded: modest decrease in proliferation” in each case. In addition, the “cancer-like cell lines grew slower with treatment” value in assay [2] (setting [4]) and in assay [3] (setting [4]) was around 10% in each case.
